Reference: patent publication US6379697B1, “Stabilization of photosensitive materials” (The Secretary of State for Defence in Her Britannic …, priority 1994, dated 2002)
Like-named read-outs stand apart in the source and are kept apart here.

Experiment: Photodegradation of riboflavin preparations under UV irradiation (254/365 nm), first order kinetics
Format: physicochemical
Conditions: for half-life: aqueous solution of free riboflavin under UV irradiation
Description: At time intervals a known amount of the solution or suspension was diluted with double distilled water and the absorbance or fluorescence measured.
In the case of the liposome suspensions liposomal pellets were produced, solubilised with a 10% solution of Triton-X-100 (RTM) and then diluted and measured. The entrapment and degradation of riboflavin was calculated from the absorbance readings at 444 nm, absorbance at this wavelength not interfering with the absorbance of Triton-X-100.
The photodegradation of riboflavin caused by UV irradiation follows first order kinetics and is given by the following equation: […]
where C0 is the initial concentration of riboflavin, C is the concentration of riboflavin after t min of irradiation and k is the first order photodegradation rate constant.
The graphic representation of Equation (2) is linear and the slope of the line gives the photodegradation rate constant k.
The increase in stability was expressed by the stabilization ratio. (k0/k), where k0 is the photodegradation constant of free riboflavin in aqueous solution and k the photodegradation rate constant of the various preparations.
Riboflavin gamma-cyclodextrin inclusion complexes were entrapped in DRV incorporating a light absorbing agent or antioxidant in their lipid phase selected from: oil Red 0, oxybenzone, deoxybenzone and beta-carotene or combinations thereof. […] As in the previous examples this degradation followed first order kinetics represented by the equations given earlier.
In order to determine the extent of this reduction and to determine whether during the photodegradation of riboflavin the same concentration of oil Red 0 caused different reductions in fluorescence, solutions containing known amounts of riboflavin and oil Red 0 solubilised in water using Triton-X-100 were prepared and their fluorescence measured.

Q: Which half-life (aqueous solution, irradiation, read-out: half life of riboflavin in aqueous solution on irradiation) does the source give for `Cc1cc2nc3c(=O)[nH]c(=O)nc-3n(C[C@H](O)[C@H](O)[C@H](O)CO)c2cc1C` [Riboflavin, riboflavin] here?
A: ~30 min

Q: What about the half-life (free riboflavin, UV irradiation, read-out: half life of riboflavin) of the same molecule?
A: 30 min

Q: What about the “rate of decomposition of riboflavin in aqueous solution on irradiation” value (aqueous solution, irradiation) of the same molecule?
A: 0.024 min⁻¹

Q: And the “k × 10^3, rate constant for the photodegradation of riboflavin” value (values are k × 10^3, UV lamp 254/365 nm, 3 cm, 24° C.)?
A: 24(k °) min^−1
